Test: Stability of cream formulation: HPLC assay of solamargine
Assay type: physicochemical
Conditions: cream with 5% urea, 10% salicylic, 25°C, 60% RH
Method: Visual appearance was conducted by comparison to standard commercially available solamargine cream composition. High-Performance Liquid Chromatography (HPLC) to determine quantity of solamargine in the cream, substantially as described in WO 2000061153 A1.

With `C[C@@H]1CC[C@@]2(NC1)O[C@H]1C[C@H]3[C@@H]4CC=C5C[C@@H](O[C@@H]6O[C@H](CO)[C@@H](O[C@@H]7O[C@@H](C)[C@H](O)[C@@H](O)[C@H]7O)[C@H](O)[C@H]6O[C@@H]6O[C@@H](C)[C@H](O)[C@@H](O)[C@H]6O)CC[C@]5(C)[C@H]4CC[C@]3(C)[C@H]1[C@@H]2C` [Solamargine, (22R,25R)-spiro-5-en-3β-yl-α-L-rhamnopyranosyl-(1→2glu)-O-α-L-rhamnopyranosyl-(1→4glu)-β-D-gluco-pyranose] the “HPLC Assay Solamargine” value (10% lactic acid, 1% Xanthan gum, 0 months) was 20.6 μg/g cream, the “HPLC Assay Solamargine” value (10% lactic acid, 1% Xanthan gum, 3 months) was 23.1 μg/g cream and the “HPLC Assay Solamargine” value (10% lactic acid, 1% Xanthan gum, 6 months) was 19.8 μg/g cream. The “HPLC Assay Solamargine” value (10% lactic acid, 1% Xanthan gum, 9 months) was 21.2 μg/g cream, the “HPLC Assay Solamargine” value (10% lactic acid, 1% Xanthan gum, 12 months) was 23.1 μg/g cream and the “HPLC Assay Solamargine” value (10% lactic acid, 1% Xanthan gum, 18 months) was 20.4 μg/g cream. For the same compound, the “HPLC Assay Solamargine” value (10% lactic acid, 1% Xanthan gum, 24 months) was 22.1 μg/g cream, the “HPLC Assay Solamargine” value (10% lactic acid, 1% Xanthan gum, 36 months) was 19.8 μg/g cream and the “HPLC Assay Solamargine” value (10% lactic acid, 1% Xanthan gum, 42 months) was 19.6 μg/g cream. For the same compound, the “HPLC Assay Solamargine” value (10% lactic acid, 1% Xanthan gum, 48 months) was 21.2 μg/g cream, the “HPLC Assay Solamargine” value (no lactic acid, no emulsion-stabilising agent, 0 months) was 18.3 μg/g cream and the “HPLC Assay Solamargine” value (no lactic acid, no emulsion-stabilising agent, 3 months) was 19 μg/g cream. For the same compound, the “HPLC Assay Solamargine” value (no lactic acid, no emulsion-stabilising agent, 6 months) was 21.1 μg/g cream, the “HPLC Assay Solamargine” value (no lactic acid, no emulsion-stabilising agent, 9 months) was 9.2 μg/g cream and the “HPLC Assay Solamargine” value (no lactic acid, no emulsion-stabilising agent, 12 months) was 7.3 μg/g cream. For the same compound, the “HPLC Assay Solamargine” value (no lactic acid, no emulsion-stabilising agent, 18 months) was 6.8 μg/g cream, the “HPLC Assay Solamargine” value (no lactic acid, no emulsion-stabilising agent, 24 months) was 5.1 μg/g cream and the “HPLC Assay Solamargine” value (no lactic acid, no emulsion-stabilising agent, 36 months) was 5.3 μg/g cream. For the same compound, the “HPLC Assay Solamargine” value (no lactic acid, no emulsion-stabilising agent, 42 months) was 5.1 μg/g cream and the “HPLC Assay Solamargine” value (no lactic acid, no emulsion-stabilising agent, 48 months) was 5.2 μg/g cream.

From patent publication US12357649B2, “Glycoalkaloid combinations and various uses thereof” (priority 2016, dated 2025)
